One compound from patent US20240374555A1, “Mast Cell Stabilizer with Sodium Cromoglycate-based Inhibitor for Preventing Lipedema Progression” (MAGI'S LAB SRL, priority 2023, published 2024) can be followed below.

In this assay the test system is histamine and its metabolites in the tissue of people with lipedema. Briefly: Metabolomic analysis (IM-MS) of subcutaneous adipose tissue biopsies from lipedema patients treated with sodium cromoglycate. Type of assay: in vivo, human. As to conditions: for Histamine levels in tissue samples after treatment (in words): three lipedema patients treated for two weeks. On the procedure:
This experiment study involved patients who were diagnosed with lipedema. The study began with collection of a sample from each subject in the study, and three patients received a treatment regimen consisting of twice daily oral doses of sodium cromoglycate (500 mg) for 15 days, as well as a topical cream containing 4% sodium cromoglycate. The effects of this treatment on the patients' symptoms and mast cell activation were evaluated as part of the study.
Thereafter, metabolomic analysis was performed by mass spectrometry. Specifically, the ion-mobility mass spectrometry (IM-MS) technique combined ion mobility with mass spectrometry, allowing different compounds to be characterized together with a specific m/z ratio. SACI-CIMS was used as ionization technique. Data were acquired through the SANIST platform. Values under the Limit of Quantification (LoQ=1 pg/mg) were considered as 0 pg/mg.
Thereafter, a target histological and metabolomic examination was performed. Specifically, biopsies of subcutaneous adipose tissue were taken from a total of six patients with lipedema and four healthy individuals.

The mark [1] stands for this setting: lipedema tissue of patients treated with sodium cromoglycate (n = 3), 500 mg oral twice daily for 15 days plus 4% topical cream.
The mark [2] stands for this setting: lipedema tissue of patients treated with sodium cromoglycate (n = 3), 500 mg oral twice daily for 15 days plus 4% topical cream, values under LoQ (1 pg/mg) given as 0.

With `O=C(O)c1cc(=O)c2c(OCC(O)COc3cccc4oc(C(=O)O)cc(=O)c34)cccc2o1` [sodium cromoglycate, Sodium cromoglycate], the “Histamine levels in tissue samples after treatment (in words)” value was “effectively reduce histamine levels”. Also, under setting [1], the 1-Methylhystamine tissue level was 13.67 ± 10.02 pg/mg and the Histidine tissue level is reported as 20.67 ± 17.00 pg/mg. In addition, under setting [2], the Histamine tissue level stood at 0 pg/mg and the “Imidazole Acetaldehyde tissue level” value amounted to 0 pg/mg. The “Histamine levels in tissue samples after treatment (in words)” value (listed as disodium cromoglycate) is recorded as “normal levels of histamine”.
